Experimental findings from PubChem BioAssay (NCI) are described below.

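Compound exposure: 48 hours, 5 concentrations, 96-well plates. Abbreviation: GI50, concentration required for 50% inhibition of growth. The concentration for full growth arrest is given as TGI.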

Among the test systems are UACC-62 melanoma; A498 renal; HS 578T breast; HOP-62 NSCLC; EKVX NSCLC; T-47D breast; IGROV1 ovarian; OVCAR-5 ovarian; MDA-MB-231 breast; SF-539 CNS.
Common to all, as to assay: NCI tumour cell line growth inhibition, 48 h

As to `O=C1c2cccc(NCCN=Cc3cc(O)ccc3O)c2C(=O)c2c(NCCN=Cc3cc(O)ccc3O)cccc21`, the GI50 is 1.68 µM in the assay with UACC-62 melanoma; 1.41 µM in the assay on A498 renal; 1.03 µM in the assay with HS 578T breast; 1.28 µM with HOP-62 NSCLC; 1.8 µM in the assay with EKVX NSCLC; 2.35 µM in the assay on T-47D breast. For the same compound, the results for the GI50 in the assay with IGROV1 ovarian, with OVCAR-5 ovarian and in the assay with MDA-MB-231 breast were 1.19 µM, 2.12 µM and 0.877 µM, respectively. Further, the TGI was 3.57 µM with UACC-62 melanoma; 3.1 µM in the assay on A498 renal; 3.78 µM in the assay on HS 578T breast; 4.06 µM in the assay with HOP-62 NSCLC; 5.77 µM with EKVX NSCLC; 7.35 µM in the assay with T-47D breast. The TGI with IGROV1 ovarian stood at 4.59 µM; in the assay on OVCAR-5 ovarian, 5.14 µM; in the assay with MDA-MB-231 breast, 2.25 µM.
Regarding `COc1cnc2cc(C(=O)O)c3c([N+](=O)[O-])cccc3c2c1`, the TGI in the assay with UACC-62 melanoma, in the assay on HS 578T breast, with HOP-62 NSCLC, in the assay with EKVX NSCLC, in the assay with T-47D breast and with IGROV1 ovarian was over 100 µM throughout. Moreover, the TGI in the assay with OVCAR-5 ovarian and with MDA-MB-231 breast was over 100 µM each time.
In the case of `CCCCCCCCCCCCCC(=O)OC1CC(=O)OC1CO` (stereo not given), the TGI was 51.1 µM in the assay with UACC-62 melanoma; over 100 µM in the assay with A498 renal; over 100 µM in the assay with HOP-62 NSCLC; over 100 µM in the assay with EKVX NSCLC; over 100 µM with SF-539 CNS; over 100 µM in the assay on IGROV1 ovarian. For the same compound, the TGI with OVCAR-5 ovarian was over 100 µM.
Regarding `Cc1nc2cccc([N+](=O)[O-])c2c(NCCCN(C)C)c1C`, the TGI in the assay on UACC-62 melanoma is over 100 µM; with A498 renal, over 54 µM; with HS 578T breast it was over 100 µM; with HOP-62 NSCLC it was over 69.2 µM; in the assay on EKVX NSCLC it was over 31.6 µM; with SF-539 CNS, over 100 µM. The TGI is over 100 µM with T-47D breast, over 100 µM with IGROV1 ovarian and 60.2 µM in the assay on OVCAR-5 ovarian.
With `CCCCCCCCCC[C@@H](O)[C@@H]1CC[C@H]([C@H]2CC[C@@H]([C@@H](O)CCCCCCCCCC[C@H]3CC(CC(C)=O)C(=O)O3)O2)O1` (stereo not given in full), the TGI is 32.2 µM in the assay on UACC-62 melanoma; 71.9 µM in the assay with A498 renal; 31 µM in the assay with HOP-62 NSCLC; 78 µM with EKVX NSCLC; 22.7 µM in the assay on SF-539 CNS; 39.2 µM in the assay with IGROV1 ovarian. The TGI in the assay on OVCAR-5 ovarian stood at 74.3 µM.
As to `O=C(O)Cn1ccc(=O)c2ccc([N+](=O)[O-])cc21`, the TGI in the assay with UACC-62 melanoma, with A498 renal, with HS 578T breast, in the assay with HOP-62 NSCLC, in the assay with SF-539 CNS and in the assay on T-47D breast was over 100 µM in each case. Also, the values for the TGI in the assay with IGROV1 ovarian, with OVCAR-5 ovarian and in the assay on MDA-MB-231 breast were over 100 µM, over 100 µM and 78.5 µM, respectively.
Take `O=C(c1ccco1)c1nc2ccc(C(F)(F)F)cc2[n+]([O-])c1C(F)(F)F`: the GI50 is 43.1 µM in the assay on UACC-62 melanoma; 33.7 µM with A498 renal; over 100 µM in the assay with HS 578T breast; 33.6 µM in the assay on HOP-62 NSCLC; 12.9 µM in the assay on EKVX NSCLC; 54 µM in the assay on SF-539 CNS. The GI50 was 35.6 µM in the assay with IGROV1 ovarian, over 100 µM in the assay on OVCAR-5 ovarian and 25.4 µM with MDA-MB-231 breast. The TGI with UACC-62 melanoma, in the assay on A498 renal, in the assay with HS 578T breast, with HOP-62 NSCLC, in the assay on EKVX NSCLC and with SF-539 CNS was over 100 µM in each case. For the same compound, the TGI in the assay with IGROV1 ovarian, in the assay on OVCAR-5 ovarian and in the assay on MDA-MB-231 breast was over 100 µM in each case.
Consider `COC(=O)CCCCN=Cc1c(O)c(O)c(C(C)C)c2cc(C)c(-c3c(C)cc4c(C(C)C)c(O)c(O)c(C=NCCCCC(=O)OC)c4c3O)c(O)c12`, for which the GI50 in the assay on A498 renal is 1.79 µM; with HS 578T breast, 1.49 µM; in the assay with HOP-62 NSCLC it was 1.22 µM; with EKVX NSCLC, 0.924 µM; in the assay on SF-539 CNS, 1.53 µM; in the assay with T-47D breast it was 0.692 µM. The GI50 was 1.41 µM with IGROV1 ovarian and 1.08 µM in the assay on MDA-MB-231 breast. Also, the TGI in the assay with A498 renal was over 32.5 µM; in the assay with HS 578T breast, over 32.5 µM; in the assay on HOP-62 NSCLC it was 9.21 µM; with EKVX NSCLC, over 32.5 µM; with SF-539 CNS it was over 32.5 µM; in the assay on T-47D breast, 8.04 µM. Also, the TGI was over 32.5 µM in the assay with IGROV1 ovarian and 12.1 µM in the assay on MDA-MB-231 breast.
As for `N=C1CSC2=NC3=C(CCC/C3=C\c3ccccc3)C(c3ccccc3)N12` (stereo not given), the TGI in the assay with UACC-62 melanoma amounted to 23 µM; with A498 renal, 27.6 µM; in the assay on HOP-62 NSCLC, 25.6 µM; with EKVX NSCLC it was 9.54 µM; in the assay on SF-539 CNS it was 20 µM; in the assay with IGROV1 ovarian it was 20.1 µM. In the assay on OVCAR-5 ovarian, this compound displayed a TGI of 20.1 µM.
On to `COc1cc(/C=C/c2cc(/C=C/c3ccc(O)c(OC)c3)n(-c3ccccc3)n2)ccc1O`, for which the GI50 with A498 renal is 0.575 µM; in the assay on HS 578T breast, 0.157 µM; in the assay on HOP-62 NSCLC, 0.404 µM; in the assay on EKVX NSCLC, 1.12 µM; in the assay with T-47D breast it was 0.645 µM; in the assay with IGROV1 ovarian, 0.532 µM. In addition, the GI50 in the assay with OVCAR-5 ovarian was 1.27 µM; with MDA-MB-231 breast it was 0.557 µM. Besides, the TGI is 1.82 µM in the assay with A498 renal; over 23.2 µM in the assay with HS 578T breast; 1.52 µM with HOP-62 NSCLC; 3.7 µM in the assay with EKVX NSCLC; 2.6 µM in the assay with T-47D breast; 4.02 µM in the assay with IGROV1 ovarian. In addition, the values for the TGI in the assay on OVCAR-5 ovarian and with MDA-MB-231 breast were 4.51 µM and 6.94 µM, respectively.
Take `Cc1ccc(C)c(NC(=O)CC/C(=N\NC(=O)C(=O)NN)C(C)C(=O)c2ccc(O)cc2)c1` (stereo not given): the TGI in the assay with UACC-62 melanoma, in the assay on A498 renal, in the assay with HOP-62 NSCLC, in the assay with EKVX NSCLC, in the assay with SF-539 CNS and in the assay with IGROV1 ovarian was over 100 µM throughout. Besides, the TGI with OVCAR-5 ovarian was over 100 µM.
For `CN(C)CCNc1cc(-c2ccccc2)nc2ccccc12`, the GI50 was 13.7 µM in the assay on UACC-62 melanoma; 2.01 µM with A498 renal; 12 µM in the assay on HS 578T breast; 6.02 µM in the assay on HOP-62 NSCLC; 8.22 µM in the assay with SF-539 CNS; 8.79 µM with T-47D breast. In addition, the GI50 with IGROV1 ovarian is 6.57 µM; in the assay on OVCAR-5 ovarian, 5.9 µM; in the assay with MDA-MB-231 breast, 7.45 µM. Besides, the TGI in the assay on UACC-62 melanoma came to 30 µM; with A498 renal it was 13.6 µM; in the assay with HS 578T breast, 37.1 µM; with HOP-62 NSCLC it was 32.9 µM; in the assay with SF-539 CNS, 22.7 µM; in the assay on T-47D breast it was 37.2 µM. The TGI in the assay with IGROV1 ovarian amounted to 35.1 µM; in the assay on OVCAR-5 ovarian it was 36.8 µM; with MDA-MB-231 breast it was 32.5 µM.
